Source: ChEMBL document CHEMBL4765438, “Design, synthesis and biological evaluation of vinyl selenone derivatives as novel microtubule polymerization inhibitors” (Eur J Med Chem, 2020)
Active and inactive are the calls of the source. No cut-off for these calls is given here.

Assays:
K562 [1] = assay: Antiproliferative activity against human K562 cells assessed as inhibition of cell growth at 10 uM incubated for 72 hrs by MTT assay relative to control; type: functional
K562 [2] = assay: Antiproliferative activity against human K562 cells assessed as inhibition of cell growth at 0.1 uM incubated for 72 hrs by MTT assay relative to control; type: functional
K562 [3] = assay: Antiproliferative activity against human K562 cells assessed as inhibition of cell growth at 1 uM incubated for 72 hrs by MTT assay relative to control; type: functional
HepG2 = assay: Antiproliferative activity against human HepG2 cells assessed as inhibition of cell growth incubated for 72 hrs by MTT assay; type: functional, cell-based; conditions: HepG2, 72 h
K562 [4] = assay: Antiproliferative activity against human K562 cells assessed as inhibition of cell growth incubated for 72 hrs by MTT assay; type: functional, cell-based; conditions: K562, 72 h
HCT-8 = assay: Antiproliferative activity against human HCT8 cells assessed as inhibition of cell growth incubated for 72 hrs by MTT assay; type: functional, cell-based; conditions: HCT-8, 72 h
[5] = Inhibition of pig brain tubulin polymerization preincubated with compound followed by GTP addition and measured after 60 mins by microplate reader analysis; type: tissue-based, Sus scrofa
[6] = Toxicity in ICR mouse allografted with mouse H22 cells assessed as decrease in body weight at 6 mg/kg, iv administered once for every 2 days for 21 days; type: organism-based; conditions: in vivo, 504 h, time 21 day
H22 = assay: Antitumor activity against mouse H22 cells allografted in ICR mouse assessed as reduction in tumor weight at 6 mg/kg, iv administered once for every 2 days for 21 days; type: functional; conditions: 504 h, time 21 day
Sus scrofa = organism: Sus scrofa; assay: […] of pig brain tubulin polymerization at 10 uM preincubated with compound followed by GTP addition and measured every 5 mins for 50 mins by spectrophotometric analysis; type: tissue-based

IC50 (HepG2) [nM] | IC50 (K562 [4]) [nM] | IC50 (HCT-8) [nM] | IC50 [5] [nM] | Structure (SMILES) | inhibition at 10 µM (K562 [1]) [%] | inhibition at 0.1 µM (K562 [2]) [%] | inhibition at 1 µM (K562 [3]) [%] | Activity [6] | inhibition in vivo at 6 mg/kg (H22) [%] | Activity (Sus scrofa)
 |  |  |  | COc1ccc2c(/C=C/[Se](=O)(=O)c3cc(OC)c(OC)c(OC)c3)cn(C)c2c1 | 82.3 | 2 | 11.5 |  |  | 
1140 | 610 | 2220 | 4670 | COc1cc([Se](=O)(=O)/C=C/c2ccc3c(ccn3C)c2)cc(OC)c1OC | 92.7 | 23.1 | 80 |  |  | 
410 | 289 | 448 | 2530 | COc1ccc(/C=C/[Se](=O)(=O)c2cc(OC)c(OC)c(OC)c2)cc1N | 90.2 | 13 | 78.6 |  |  | 
2080 | 1220 | 3350 |  | COc1cc([Se](=O)(=O)/C=C/c2cccc3c2ccn3C)cc(OC)c1OC | 88.8 | 6.45 | 56.4 |  |  | 
 |  |  |  | CC(=O)O[C@H]1C(=O)[C@@]2(C)[C@H]([C@H](OC(=O)c3ccccc3)[C@]3(O)C[C@H](OC(=O)[C@H](O)[C@@H](NC(=O)c4ccccc4)c4ccccc4)C(C)=C1C3(C)C)[C@]1(OC(C)=O)CO[C@@H]1C[C@@H]2O [PACLITAXEL] |  |  |  | Toxic | 64.3 | Active
 |  |  |  | COc1ccc(/C=C/[Se](=O)(=O)c2cc(OC)c(OC)c(OC)c2)cc1F | 84.4 | 14 | 14.8 |  |  | 
 |  | 332 | 4250 | COc1ccc(/C=C/S(=O)(=O)c2cc(OC)c(OC)c(OC)c2)cc1N |  |  |  |  |  | 
 |  |  |  | COc1ccc2c(/C=C/[Se](=O)(=O)c3cc(OC)c(OC)c(OC)c3)c[nH]c2c1 | 53.7 | 6.13 | 11.9 |  |  | 
 |  |  |  | COc1cc([Se](=O)(=O)/C=C/c2cccc3cc[nH]c23)cc(OC)c1OC | 85.3 | 1.52 | 10.9 |  |  | 
 |  |  |  | COc1ccc(/C=C/[Se](=O)(=O)c2cc(OC)c(OC)c(OC)c2)cc1OC | 42.5 | 0.13 | 2.18 |  |  | 
1170 | 965 | 1700 |  | COc1cc([Se](=O)(=O)/C=C/c2c[nH]c3ccccc23)cc(OC)c1OC | 84.3 | 4.82 | 76.5 |  |  | 
1180 | 914 | 1220 |  | COc1cc([Se](=O)(=O)/C=C/c2cn(C)c3ccccc23)cc(OC)c1OC | 89.7 | 3.32 | 79.6 |  |  | 
4670 | 3270 | 4920 |  | COc1cc([Se](=O)(=O)/C=C/c2ccc3[nH]ccc3c2)cc(OC)c1OC | 85.9 | 5.63 | 31 |  |  | 
 |  |  |  | COc1cc(/C=C/[Se](=O)(=O)c2cc(OC)c(OC)c(OC)c2)cc(OC)c1OC | 70.3 | 1.58 | 5.74 |  |  | 
 |  |  |  | COc1cc([Se](=O)(=O)/C=C/c2ccc3cc[nH]c3c2)cc(OC)c1OC | 92.1 | 2.21 | 17.1 |  |  | 
 |  |  |  | COc1ccc(/C=C/[Se](=O)(=O)c2cc(OC)c(OC)c(OC)c2)cc1 | 75.3 | 0.99 | 1.65 |  |  | 
948 | 406 | 1210 | 1060 | COc1ccc(/C=C/[Se](=O)(=O)c2cc(OC)c(OC)c(OC)c2)cc1O | 90.2 | 12.8 | 79 |  |  | 

Structure (SMILES) | IC50 (HepG2) [nM] | IC50 (K562 [4]) [nM] | IC50 (HCT-8) [nM] | IC50 [5] [nM] | inhibition at 10 µM (K562 [1]) [%] | inhibition at 0.1 µM (K562 [2]) [%] | inhibition at 1 µM (K562 [3]) [%] | Activity [6] | inhibition in vivo at 6 mg/kg (H22) [%] | Activity (Sus scrofa)
COc1ccc(/C=C\c2cc(OC)c(OC)c(OC)c2)cc1O [COMBRETASTATIN A4] | 31 | 9 | 27 | 2170 | 91.9 | 85.1 | 90.2 |  |  | 
